Experimental data: ChEMBL document CHEMBL1155190, “Identification of a cell-active non-peptide sirtuin inhibitor containing N-thioacetyl lysine” (Bioorg Med Chem Lett, 2009)

Experiments:
[1] = target: T1, NAD-dependent protein deacetylase sirtuin-1 (Homo sapiens, UniProt Q96EB6); experiment: Inhibition of human recombinant SIRT1 after 60 mins by fluorimetric analysis
T1 sequence (Q96EB6 whole entry): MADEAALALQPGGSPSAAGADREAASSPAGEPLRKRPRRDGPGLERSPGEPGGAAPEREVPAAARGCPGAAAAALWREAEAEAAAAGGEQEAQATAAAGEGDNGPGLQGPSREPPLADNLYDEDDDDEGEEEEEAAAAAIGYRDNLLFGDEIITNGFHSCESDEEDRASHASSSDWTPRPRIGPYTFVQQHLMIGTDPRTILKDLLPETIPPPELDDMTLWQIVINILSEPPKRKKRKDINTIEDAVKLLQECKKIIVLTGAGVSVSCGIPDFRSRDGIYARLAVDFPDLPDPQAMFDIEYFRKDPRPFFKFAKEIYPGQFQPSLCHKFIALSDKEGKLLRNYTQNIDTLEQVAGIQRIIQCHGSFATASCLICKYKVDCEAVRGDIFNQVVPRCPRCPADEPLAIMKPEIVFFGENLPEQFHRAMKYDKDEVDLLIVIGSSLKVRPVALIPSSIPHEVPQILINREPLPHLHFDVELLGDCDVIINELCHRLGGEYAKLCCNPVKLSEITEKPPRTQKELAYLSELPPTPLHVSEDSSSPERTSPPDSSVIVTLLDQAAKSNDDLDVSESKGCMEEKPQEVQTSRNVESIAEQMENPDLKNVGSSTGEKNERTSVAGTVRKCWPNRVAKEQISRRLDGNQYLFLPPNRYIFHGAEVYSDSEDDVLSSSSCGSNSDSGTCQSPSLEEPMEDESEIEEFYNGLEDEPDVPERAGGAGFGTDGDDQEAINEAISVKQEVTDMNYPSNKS

[2] = target: T2, NAD-dependent protein deacetylase sirtuin-2 (Homo sapiens, UniProt Q8IXJ6); experiment: Inhibition of human recombinant SIRT2 after 60 mins by fluorimetric analysis
T2 sequence (Q8IXJ6 whole entry): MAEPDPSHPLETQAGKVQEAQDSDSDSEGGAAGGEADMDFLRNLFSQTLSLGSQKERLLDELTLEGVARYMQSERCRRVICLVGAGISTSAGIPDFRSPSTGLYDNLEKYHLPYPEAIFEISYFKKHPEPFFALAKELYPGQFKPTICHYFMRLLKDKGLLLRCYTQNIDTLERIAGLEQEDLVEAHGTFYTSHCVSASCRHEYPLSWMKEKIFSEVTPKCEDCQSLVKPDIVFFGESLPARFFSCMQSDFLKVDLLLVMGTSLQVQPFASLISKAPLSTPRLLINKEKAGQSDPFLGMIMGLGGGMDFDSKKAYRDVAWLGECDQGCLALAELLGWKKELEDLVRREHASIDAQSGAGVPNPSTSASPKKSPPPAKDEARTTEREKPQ

[3] = target: T3, NAD-dependent protein deacetylase sirtuin-3, mitochondrial (Homo sapiens, UniProt Q9NTG7); experiment: Inhibition of human recombinant SIRT3 after 60 mins by fluorimetric analysis
T3 sequence (Q9NTG7 whole entry): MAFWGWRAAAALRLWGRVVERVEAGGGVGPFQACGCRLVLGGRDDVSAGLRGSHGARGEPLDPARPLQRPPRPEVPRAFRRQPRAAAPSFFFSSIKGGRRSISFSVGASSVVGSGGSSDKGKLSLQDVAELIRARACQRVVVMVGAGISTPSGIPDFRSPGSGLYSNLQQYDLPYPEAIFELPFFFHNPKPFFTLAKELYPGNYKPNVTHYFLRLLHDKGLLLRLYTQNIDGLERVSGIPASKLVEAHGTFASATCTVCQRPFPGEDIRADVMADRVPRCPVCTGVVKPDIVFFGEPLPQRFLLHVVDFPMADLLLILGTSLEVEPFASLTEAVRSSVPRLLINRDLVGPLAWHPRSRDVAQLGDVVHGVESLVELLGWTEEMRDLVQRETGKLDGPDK

CC(=S)NCCCC[C@H](NC(=O)OCc1ccccc1)C(=O)Nc1ccccc1 was tested, and the IC50 [1] was 2.7 µM, the IC50 [2] was 23 µM and the IC50 [3] was over 100 µM.
